Like-named read-outs stand apart in the source and are kept apart here.
Key:
P. falciparum Dd2 = P. falciparum Dd2 asexual blood stages Scynexis; format: cell-based; conditions: Plasmodium falciparum
[1] = tested on: P. falciparum 3D7 gametocytes stage IV-V; assay: Gametocyte pLDH assay UMIL; format: cell-based; conditions: Plasmodium falciparum, 3D7, 72 h
Procedure: Columns BO-BR: Taramelli group (Columns BO-BP data presented first in this paper, Columns BQ-BR are new data except as noted below). Gametocytocidal activity at UMIL. The Malaria Box compounds were used for primary screening against P. falciparum 3D7 gametocytes and subsequently for IC50 determination against Pf gametocytes obtained from the 3D7 and the 3D7elo1-pfs16-CBG99 transgenic strain [74], as previously described. The primary screening was performed on stage IV-V gametocytes from the 3D7 strain at 3.7 µM, in 96 well plates, using 100 nM epoxomicin and 1 µM DHA as positive controls and 0.5% DMSO as negative untreated control. […] The dose-response experiments were performed in 96 well plates using the 3D7 strain (pLDH, 72+72h, column BR in heat map) and the 3D7elo1-pfs16-CBG99 (luciferase assay, 72h, column BQ in heat map). Data analysis was performed as described.

B. bovis (Texas strain) = assay: B. bovis fluorescence-based growth assay; format: cell-based; conditions: Babesia bovis, in Bos taurus
S. mansoni adult worms = S. mansoni adult worms LSHTM Bickle; format: cell-based, Schistosoma mansoni; conditions: 15 μM
Procedure: Columns DI-DJ, DL: Bickle group. (columns DI and DL data presented first in this paper, column DJ partially published in ref [95].). […] Male CD1 mice (aged 5–6 weeks) were bred on site using SPF conditions with access of food and water ab libitum. Worms were obtained by portal perfusion of CD1 mice (Charles River, UK) 6 weeks post-infection and 3 worm pairs added to the wells of 48 well plates (Nunc, UK) in 1 ml complete DMEM medium supplemented with 10% fetal calf serum (Gibco, UK), 2 mM L-glutamine, 100 U/ml penicillin, 100 µg/ml streptomycin (cDMEM). A primary adult worm screen was performed in which 400 MMV compounds were tested at 15 µM in 0.15% DMSO. Negative controls contained worms cultured in cDMEM alone and in cDMEM with 0.15% DMSO. Positive control wells contained worms cultured in Praziquantel (Sigma-Aldrich, UK) at 10 µM. Cultures were incubated at 37 °C and 5% CO2. Effects were assessed on day 5 of culture using an inverted microscope (Leitz Diavert Wetzlar, Germany). Any compounds producing complete immobility or ≥ 70% worm motility inhibition plus severe morphological damage were considered hits in the primary screen. […] IC50 for the compounds was calculated using Microsoft XLfit version 5.1.0.0 (2006-2008 ID Business Solutions Ltd). In vitro screening of S. mansoni schistosomula run at LSHTM (London): Schistosomula were prepared as previously reported with the modification of using a 45% and 70% Percoll gradient and the cercarial heads recovered from the 70% layer. All centrifugation steps were done at 350 xg. An appropriate volume of drug Stock was pre-added to wells in 96-well microtiter culture plates (Nunc, UK) containing 100 µl complete M169 (cM169). The wells were then topped up with another 100 µl of cM169 containing 100 schistosomula to give final concentrations of 15 µM of compound per well. Negative controls contained larvae cultured in cM169 alone and in cM169 with 0.5% DMSO. Positive control wells contained schistosomula cultured in Praziquantel (Sigma-Aldrich, UK) at 10 µM. Cultures were incubated at 37 °C and 5% CO2. Effects were assessed on day 3 of culture using an inverted microscope (Leitz Diavert Wetzlar, Germany). Any compounds producing complete immobility or ≥ 70% motility inhibition plus severe morphological damage were considered hits in the larval screen.

[2] = tested on: Onchocerca lienalis microfilariae; assay: Onchocerca lienalis microfilariae motility; format: cell-based; conditions: 12.5µM
Procedure: Column DW: Townson group (data presented first in this paper). Screening of Onchocerca lienalis microfilariae for motility inhibition in microplates. Methods: Microfilariae are obtained from samples of peri-umbilical skin of freshly slaughtered, naturally infected cattle in the UK. […] The results are then calculated as motility index scores and expressed as a percentage of the maximum obtainable. […] Merial) were immotile at the end of the trial.

Dictyostelium discoideum = assay: D. discoideum toxicity assay; format: cell-based; conditions: 10µM
Procedure: (§1) Columns FA-FC: Soldati Group (data presented first in this paper). M. marinum, D. discoideum, and Acathamoeba castellani assays. Each compound of the Malaria Box has been assayed at 10 µM in all three assays. First, the antibiotic activity was assayed directly against Mycobacterium marinum in its culture medium. Second, the toxicity and growth inhibitory effect of the compounds was assayed against the amoeba Dictyostelium discoideum in its culture medium. Finally, the “in cellulo” anti-infective activity of each compound was tested using the intracellular infection system Acanthamoeba castellanii-M. marinum. Values have been normalized using the DMSO carrier. For each assay, values have been normalized to 1.00 using the DMSO carrier, which has no detectable effect on D. discoideum nor M. marinum growth, while rifabutin was used as positive control for the antibiotic assay and the infection assay, as it abolishes M. marinum growth (normalized value under 0.10) in broth at 10 µM and intracellularly at 30 µM [150].

[3] = tested on: Mycobacterium marinum in Acanthamoeba castellanii; assay: A. castellanii-M. marinum infection assay; format: cell-based; conditions: 10µM
Procedure: as §1

zebrafish embryos = assay: Zebrafish embryo toxicity, mortality, behaviour; format: in vivo; conditions: 10µM
Procedure: Columns FE-FG: BIOBIDE group (data presented first in this paper). Zebrafish embryo toxicity, mortality, and behaviour change. 3 days post fertilization (dPf) zebrafish embryos from AB strain (wild type) were used for in vivo toxicity and behavioural screening. […] Then, embryos were incubated with each compound at 10 µM (1% DMSO) in E3 buffered with HEPES at 10 mM for 48 hours in 24 well plates, 5 embryos per well, 3 wells per condition (n=15). A group treated only with the vehicle was included in each plate as negative control. Afterwards, mortality and morphological alterations were assessed. Toxicity: When an altered phenotype (mortality, developmental abnormalities) appeared in more than 20% of cases it was considered toxic. […] For this purpose, 5dPf larvae (treated and negative controls) were transferred from 24-well treatment plate to 96-well plate, one embryo per well. 96-well plate was introduced in DanioVision system powered by Ethovision (Noldus). The behaviour was evaluated recording a total of 40 minutes in a round of 10 minutes under light and 10 minutes in darkness repeated twice. As activity is expected to differ under light and dark periods, the analysis was performed for each one of the 10 minutes phases. The differences between treated and controls for each parameter (distance, velocity) and phase was considered significant if p value is less than 0.005 (scored y for yes in HeatMap). Also, the p values between 0.01 and 0.005 were taken into account as an indicator of tendency (scored m for maybe in heat map). The toxic character of a compound was determined by the consistent differences (in both dark and light periods) between treated embryos and controls. […] If consistent results could not be obtained, the compound was scored i for indeterminate.

[4] = 3.7 µM, read-out: gametocytes 3D7, stage IV-V, pLDH, 72+72h, %inhibition
[5] = 3.7µM, read-out: gametocytes 3D7, stage IV-V, pLDH, 72h, %inhibition

Compound	inhibition at 10 µM (P. falciparum Dd2)	inhibition at 3.7 µM [1, 4]	inhibition at 3.7 µM [1, 5]	EC50 (B. bovis (Texas strain))	Schistosoma mansoni adult worm primary assay % Motility Reduction (Hit ≥ 70%) (S. mansoni adult worms)	Onchocerca lienalis % motility [2]	Dictyostelium discoideum relative growth DMSO=1 Toxicity Assay (Dictyostelium discoideum)	Mycobacterium marinum growth in Acanthamoeba castellanii DMSO=1 Infection Assay [3]	Zebrafish % mortality (zebrafish embryos)	Zebrafish Toxicity (mortality and dev abnl) (zebrafish embryos)
COc1ccc(C(=O)Nc2ccc3nc(N4CCCCC4)cc(C)c3c2)cc1OC [MMV019758]	36%	11%	12%	14.3 µM	50%	100%	0.88	1.23	13%	y (altered phenotype (mortality, developmental abnormalities) appeared in more than 20% of cases it was considered toxic)
COc1cc2cc(C(=O)Nc3ccccc3)c(N)nc2cc1OC [MMV006767]	40%	2.43%	10%	0.86 µM	0%	100%		1.18	0%	y (altered phenotype (mortality, developmental abnormalities) appeared in more than 20% of cases it was considered toxic)
CCN(CC)c1cc(C)c2cc(NC(=O)c3cccc(OC)c3)ccc2n1 [MMV000498]	8%	11%	5%	10 µM	0%	100%	0.60	0.94	0%	
CCOC(=O)c1cnc2ccc(OC)cc2c1NCc1ccccc1 [MMV665813]	55%	12%	26%	0.72 µM	0%	100%	0.71	1.26	100%	y (altered phenotype (mortality, developmental abnormalities) appeared in more than 20% of cases it was considered toxic)
CCN1CCN(c2cc(C)c3cc(NC(=O)c4ccc(OC)c(OC)c4)ccc3n2)CC1 [MMV019074]	80%	13%	10%	6.69 µM	25%	100%		0.93	0%	y (altered phenotype (mortality, developmental abnormalities) appeared in more than 20% of cases it was considered toxic)

From paper PMC4965013, “Open Source Drug Discovery with the Malaria Box Compound Collection for Neglected Diseases and Beyond” (PLoS Pathogens, 2016)
